From PMC5721475, “Characterization of sulfhydryl oxidase from Aspergillus tubingensis” (BMC Biochemistry, 2017)

Biological target: T1, AtSOX (secreted sulfhydryl oxidase from Aspergillus tubingensis) (Aspergillus tubingensis, UniProt Z9JMF6K8Z8)
T1 construct: native secreted enzyme purified from culture medium; signal peptide removed; predicted N-terminus SSIPQ
T1 sequence (Z9JMF6K8Z8 20-393): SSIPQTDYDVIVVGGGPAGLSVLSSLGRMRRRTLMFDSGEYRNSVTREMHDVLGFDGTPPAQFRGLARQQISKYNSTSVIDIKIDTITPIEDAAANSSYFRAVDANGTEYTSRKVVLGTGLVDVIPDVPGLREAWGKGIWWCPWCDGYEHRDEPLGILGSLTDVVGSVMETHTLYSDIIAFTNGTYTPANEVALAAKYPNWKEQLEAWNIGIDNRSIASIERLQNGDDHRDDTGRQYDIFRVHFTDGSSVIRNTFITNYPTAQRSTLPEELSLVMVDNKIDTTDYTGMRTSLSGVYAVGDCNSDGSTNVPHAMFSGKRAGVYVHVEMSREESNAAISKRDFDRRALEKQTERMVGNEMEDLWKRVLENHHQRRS
Test: UV-vis and fluorescence spectra; release of flavin by thermal denaturation
Type: binding
Details: non-covalently bound, copurified; 20 mM Tris-HCl pH 7.5, 20 °C

## Cc1cc2nc3c(=O)[nH]c(=O)nc-3n(C[C@H](O)[C@H](O)[C@H](O)COP(=O)(O)OP(=O)(O)OC[C@H]3O[C@@H](n4cnc5c(N)ncnc54)[C@H](O)[C@@H]3O)c2cc1C [FAD, flavin adenine dinucleotide]
  UV-vis and fluorescence spectra; release of flavin by thermal denaturation: The enzyme had a non-covalently bound FAD as a cofactor
